According to patent publication US20200093864A1, “NOVEL THERAPEUTIC STEM CELL COMPOSITIONS WITH AN ACTIVE OXIDATIVE PHOSPHORYLATION SITE AND THEIR PREPARATION” (priority 2018, published 2020):

Experiments:
[1] = tested on: human adenocarcinoma cells; assay: Growth of cultured human adenocarcinoma cells (Example 7); format: cell-based; settings: for growth of cultured human adenocarcinoma cells (in words): Table 2 summary; for cell growth (10^5): cell numbers on day 4, 10^5 cells passaged day 0; for cell growth (10^5) / cell growth (% of control): TR2Co and TR 30 mg/dL, hMSC 10^5 added; for cell growth (% of control): day 4
Protocol: Human adenocarcinoma cells were cultured in RPMI medium with added fetal bovine serum and antibiotics, as reported by McCully K S et al in Research Communications in Chemical Pathology and Pharmacology, 1992; 77: 125-128. Equal numbers (10^5) of adenocarcinoma cells were trypsinized and passaged on day 0, and the cells were refed with media containing test compounds on days 1 and 3. Cell numbers were determined by trypsinization on day 4. Thioretinaco (TR2Co) and thioretinamide (TR) were synthesized, as previously described (McCully U.S. Pat. No. 4,618,685; McCully U.S. Pat. No. 4,925,931) and dissolved in absolute ethanol. Propylene glycol (PG) was added to the ethanol solutions of the test compounds, the ethanol was evaporated under reduced pressure at 37° C., and the resulting solutions in propylene glycol were added to the culture media. Human mesenchymal stem cells (hMSC) were incubated with cell culture medium containing TR2Co, NAD^+ and H2PO4^− in an atmosphere containing 5% ozone (O3), to produce activated stem cells and 10^5 hMSC were added to the culture medium containing adenocarcinoma cells. Equal numbers (10^5) of hMSC without exposure to TR2Co, O3, NAD^+ and H2PO4^− served as controls.

[2] = tested on: human pancreatic cancer cells growing in athymic mice; settings: direct injection into subcutaneous tumors, cited from earlier work; for tumor growth inhibition (in words): 6 weeks, vs propylene glycol vehicle controls
[3] = tested on: human pancreatic carcinoma cells; settings: added in the culture medium, after 4 days, compared with ethanol vehicle controls; cited from earlier work
[4] = tested on: cultured normal fibroblasts; settings: thioretinaco in culture medium; cited from earlier work
[5] = tested on: person with metastatic prostate cancer; assay: Example 1: intravenous activated stem cell therapy, patient case; format: in vivo, human; settings: following luprolide therapy, over three months; 8.0 before
Protocol: Preparation of human mesenchymal stem cells containing an increased concentration of the active site of oxidative phosphorylation, TR2CoO3O2NAD^+H2PO4^−, is accomplished by incubation of stem cells in cell culture medium containing thioretinaco (TR2Co), 30 mg/dL, and […] (NAD^+H2PO4^−), 30 mg/dL, and exposed to an atmosphere containing ozone […], 1-10% by volume. Human mesenchymal stem cells are isolated by liposuction or by bone marrow aspiration, followed by collagenase digestion, filtration of cellular debris, centrifugation and adherence of the cellular pellet to the surface of the cell culture dish. Adherent mesenchymal stem cells are maintained in cell culture medium for 4-5 days at about 37 degrees centigrade at atmospheric pressure until 90% confluency is achieved, subsequently passaged by trypsinization four additional times, and washed in buffered saline for use. Aliquots of the mesenchymal stem cells are checked for cell viability, and absence of fungal, bacterial, endotoxin and mycoplasma contamination. Multiple doses of 10^8 cells are delivered in 100 ml of sterile saline intravenously to achieve a total dose of 2.5×10^10 cells over a period of two years. The final concentration of TR2CoO3O2NAD^+H2PO4^− within the activated stem cells is approximately 10-300 μg/g.
A person was evaluated for treatment of metastatic prostate cancer. […]

Molecule	growth of cultured human adenocarcinoma cells (in words) [1]	cell growth (10^5) [1]	cell growth (% of control) [1]	tumor growth inhibition (in words) [2]	cellular growth (in words) [3]	further results
CC1=C(/C=C/C(C)=C/C=C/C(C)=C/C(=O)NC2CCSC2=O)C(C)(C)CCC1 (stereo not drawn) [TR, N-homocysteine thiolactonyl retinamide]	significantly inhibit	1.4 ± 0.50 10^5	19 % of control	no growth inhibition	inhibition of cellular growth	
C/C1=C2/[N-][C@H]([C@H](CC(N)=O)[C@@]2(C)CCC(=O)NC[C@@H](C)OP(=O)([O-])O[C@H]2[C@@H](O)[C@@H](n3cnc4cc(C)c(C)cc43)O[C@@H]2CO)[C@]2(C)N=C(/C(C)=C3N=C(/C=C4N=C1[C@@H](CCC(N)=O)C\4(C)C)[C@@H](CCC(N)=O)[C@]\3(C)CC(N)=O)[C@@H](CCC(N)=O)[C@]2(C)CC(N)=O.[CH2-][C@H]1O[C@@H](n2cnc3c(N)ncnc32)[C@H](O)[C@@H]1O.[Co] [adenosyl cobalamin]				no growth inhibition		
N[C@H]1CCSC1=O.[O-][Cl+3]([O-])([O-])O [homocysteine thiolactone perchlorate]				no growth inhibition		
N-homocysteine thiolactonyl retinamido cobalamin [TR2Co]	significantly inhibit	2.5 ± 0.82 10^5	33 % of control		inhibition of cellular growth	reduction of tumor weight ([2]; after 6 weeks of growth, compared with propylene glycol vehicle controls): 50%; growth of cultured normal fibroblasts (in words) [4]: Only the highest concentrations of thioretinaco decrease growth
homocysteine thiolactonyl cobalamin				no growth inhibition		
luprolide						PSA value [5]: 0.1 ng/mL
